According to US10301355B2, “Method of using pharmaceutical compositions comprising selective peptide-based agonists of melanocortin 1 receptor” (University of Cincinnati, priority 2012, dated 2019):
“Also recorded” adds a separate entry of the source. One block for each compound: values may come before it.

Columns and labels:
Format in all cases: cell-based
MC1R [1] = target: T1, MC1R (Homo sapiens, UniProt Q01726); experiment: Stimulation of cAMP formation in cultured human melanocytes; design: endogenous in cells; host or cells: cultured human melanocytes; conditions: for cAMP compared to 10 nM αMSH: cultured human melanocytes
Procedure: Peptides were tested on cultured human melanocytes for their capacity to activate MC1R, as measured by stimulating cAMP formation. After 45 minutes of treatment with different concentrations of peptides, cAMP levels were measured using a I^125-labeled radioimmunoassay kit.
(§1) Peptides were tested as described in Example 4 above on cultured human melanocytes for their capacity to activate MC1R, as measured by stimulating cAMP formation, and for their capacity for stimulating tyrosinase activity, the rate-limiting enzyme for melanin synthesis. The tested peptides were synthesized according to the formula: Ar(CH2)mX^1—X^2—CO—X^3—X^4—X^5-(Trp)n-NX^6R wherein X^1 and X^2 are absent, X^3 is His, X^5 is Arg, and X^6 is H. X^4 amino acids were in the D-stereoisomer form, unless otherwise noted.

tyrosinase = experiment: Stimulation of tyrosinase activity in cultured human melanocytes; conditions: for TA compared to 10 nM αMSH: tyrosinase activity, cultured human melanocytes
Procedure: Peptides were tested on cultured human melanocytes for their capacity for stimulating tyrosinase activity, the rate-limiting enzyme for melanin synthesis. Melanocytes were treated every other day, for a total of 6 days, with increasing concentrations of peptides. Medium containing H^3-tyrosine, the substrate for tyrosinase, was added to melanocytes 24 hours before the end of the 6-day treatment. Tyrosinase activity was measured by determining the amount of ^3H2O generated as […] is catalyzed by tyrosinase for melanin synthesis.
as §1

[2] = test system: UV-irradiated human melanocytes; experiment: Repair of UV-induced cyclobutane pyrimidine dimers (CPD); conditions: for CPD removal compared with 10 nM α-MSH: peptide at 1 nM, 48 hours post UV
Procedure: To investigate the effects of peptides on the repair of UV-induced DNA damage, levels of cyclobutane pyrimidine dimers (CPD), the major form of DNA photoproducts, were measured in UV-irradiated human melanocytes with or without peptide treatment. Melanocytes were pretreated with the peptides for 4 days prior to, and for 48 hours post UV exposure, harvested, immunostained by a specific antibody for CPD, and analyzed by flow cytometry.

hMC3R = target: T2, hMC3R (Homo sapiens, UniProt P41968); experiment: cAMP stimulation in heterologous cells expressing hMC3R
T2 construct: expressed in transfected cells
Procedure: (§2) Receptor selectivity of peptide agonists for hMC1R was determined by stimulation of cAMP in heterologous cells expressing different human melanocortin receptors (MC1R, MC3R, MC4R, and MC5R).

hMC4R = target: T3, hMC4R (Homo sapiens, UniProt P32245); experiment: cAMP stimulation in heterologous cells expressing hMC4R
T3 construct: expressed in transfected cells
Procedure: as §2

hMC5R = target: T4, hMC5R (Homo sapiens, UniProt P33032); experiment: cAMP stimulation in heterologous cells expressing hMC5R
T4 construct: expressed in transfected cells
Procedure: as §2

MC1R [3] = target: T1, MC1R; experiment: cAMP stimulation in heterologous cells expressing hMC1R; design: expressed in transfected cells; conditions: for HMC1R % MAX. ACTIVITY: cAMP, heterologous cells
Procedure: as §2

[4] = test system: UV-irradiated human melanocytes; experiment: Repair of UV-induced 8-oxodG
Procedure: To investigate the effects of peptides on repair of UV-induced DNA damage, levels of 8-oxodG, a major form of oxidative DNA damage, were measured in UV-irradiated human melanocytes with or without peptide treatment. […] Fluorescence intensity, which correlates with the amount of DNA damage, was quantified using ImagJ software.

[5] = human melanocytes, 45 minutes of treatment
[6] = human melanocytes, 6 days treatment

T4 sequence (P33032 whole entry): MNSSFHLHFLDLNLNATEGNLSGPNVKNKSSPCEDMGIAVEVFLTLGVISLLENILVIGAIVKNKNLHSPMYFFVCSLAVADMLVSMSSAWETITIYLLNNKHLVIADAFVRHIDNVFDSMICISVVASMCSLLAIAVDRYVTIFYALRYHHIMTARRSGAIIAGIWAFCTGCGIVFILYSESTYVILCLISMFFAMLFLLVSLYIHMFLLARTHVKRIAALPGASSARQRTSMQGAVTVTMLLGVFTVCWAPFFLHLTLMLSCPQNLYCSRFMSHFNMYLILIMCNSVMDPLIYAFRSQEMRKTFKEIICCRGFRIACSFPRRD
T3 sequence (P32245 whole entry): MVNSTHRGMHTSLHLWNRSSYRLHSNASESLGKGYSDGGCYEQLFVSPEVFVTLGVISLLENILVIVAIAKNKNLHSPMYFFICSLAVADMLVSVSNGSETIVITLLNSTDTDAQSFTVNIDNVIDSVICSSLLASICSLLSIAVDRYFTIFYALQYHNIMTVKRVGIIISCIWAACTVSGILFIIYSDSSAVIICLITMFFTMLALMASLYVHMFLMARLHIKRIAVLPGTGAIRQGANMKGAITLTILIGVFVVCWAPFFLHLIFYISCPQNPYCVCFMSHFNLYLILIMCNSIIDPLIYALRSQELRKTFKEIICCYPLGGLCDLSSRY
T2 sequence (P41968 whole entry): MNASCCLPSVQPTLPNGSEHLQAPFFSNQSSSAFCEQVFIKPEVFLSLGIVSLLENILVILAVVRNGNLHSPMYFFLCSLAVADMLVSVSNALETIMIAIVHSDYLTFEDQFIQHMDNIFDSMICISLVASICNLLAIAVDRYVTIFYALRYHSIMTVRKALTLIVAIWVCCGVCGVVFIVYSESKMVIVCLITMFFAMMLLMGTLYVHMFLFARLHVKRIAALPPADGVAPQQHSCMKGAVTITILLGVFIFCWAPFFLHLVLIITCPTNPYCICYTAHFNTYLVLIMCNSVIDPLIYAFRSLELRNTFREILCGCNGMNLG
T1 sequence (Q01726 whole entry): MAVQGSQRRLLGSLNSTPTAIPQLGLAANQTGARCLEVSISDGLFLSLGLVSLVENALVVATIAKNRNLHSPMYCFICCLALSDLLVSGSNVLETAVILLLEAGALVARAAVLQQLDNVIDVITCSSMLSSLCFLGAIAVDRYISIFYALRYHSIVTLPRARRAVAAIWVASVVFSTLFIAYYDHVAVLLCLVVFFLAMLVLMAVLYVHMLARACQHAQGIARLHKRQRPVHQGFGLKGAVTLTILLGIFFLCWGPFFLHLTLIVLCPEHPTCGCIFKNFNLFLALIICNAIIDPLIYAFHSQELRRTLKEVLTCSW

Compound: 4-BrC6H4CH2CO-His-(D-4-FPhe)-Arg-Trp-NH2 [208P]
cAMP compared to 10 nM αMSH (MC1R [1]): >

Compound: 4-FC6H4CH2CO-His-(D-4-FPhe)-Arg-Trp-NH2 [205P]
cAMP compared to 10 nM αMSH (MC1R [1]): ≤
TA compared to 10 nM αMSH (tyrosinase): ≥

Compound: 4-FC6H4CH2CO-His-(D-4-tBuPhe)-Arg-NHEt [498P]
cAMP compared to 10 nM αMSH (MC1R [1]): NR** (NR = No Response/inactive at 10 nM)

Compound: 4-IC6H4CH2CO-His-(D-Phe)-Arg-Trp-NH2 [488P]
cAMP compared to 10 nM αMSH (MC1R [1]): >>

Compound: Ph(CH2)3CO-His-(D-1-Nal)-Arg-NHEt [491P]
cAMP compared to 10 nM αMSH (MC1R [1]): NR (NR = No Response/inactive at 10 nM)

Compound: Ph(CH2)3CO-His-(D-2-Nal)-Arg-Trp-NH2 [468P]
cAMP compared to 10 nM αMSH (MC1R [1]): ≤

Compound: Ph(CH2)3CO-His-(D-2-Thi)-Arg-Trp-NH2 [476P]
cAMP compared to 10 nM αMSH (MC1R [1]): >

Compound: Ph(CH2)3CO-His-(D-3-NO2Phe)-Arg-Trp-NH2 [472P]
cAMP compared to 10 nM αMSH (MC1R [1]): <

Compound: Ph(CH2)3CO-His-(D-4-BrPhe)-Arg-Trp-NH2 [474P]
cAMP compared to 10 nM αMSH (MC1R [1]): =; <; >

Compound: Ph(CH2)3CO-His-(D-4-ClPhe)-Arg-Trp-NH2 [473P]
cAMP compared to 10 nM αMSH (MC1R [1]): =; >

Compound: Ph(CH2)3CO-His-(D-4-FPhe)-Arg-Trp-NH2 [470P]
cAMP compared to 10 nM αMSH (MC1R [1]): >

Compound: Ph(CH2)3CO-His-(D-4-IPhe)-Arg-Trp-NH2 [475P]
cAMP compared to 10 nM αMSH (MC1R [1]): <; >

Compound: Ph(CH2)3CO-His-(D-4-NO2Phe)-Arg-Trp-NH2 [471P]
cAMP compared to 10 nM αMSH (MC1R [1]): =

Compound: melanotan II [MT-II, reference compound]
HMC5R % MAX. ACTIVITY (hMC5R; cAMP, heterologous cells): 100%
HMC1R % MAX. ACTIVITY (MC1R [3]): 103%

Now from value to compound, other results behind:

cAMP compared to 10 nM αMSH (MC1R [1]): NR (NR = No Response/inactive at 10 nM)
Compound: 4-FC6H4CH2CO-His-(D-1-Nal)-Arg-NHEt [495P]

cAMP compared to 10 nM αMSH (MC1R [1]): NR (NR = No Response/inactive at 10 nM)
Compound: 4-FC6H4CH2CO-His-(D-2-Nal)-Arg-NHEt [496P]

cAMP compared to 10 nM αMSH (MC1R [1]): NR (NR = No Response/inactive at 10 nM)
Compound: 4-FC6H4CH2CO-His-(D-4-Bip)-Arg-NHEt [497P]

HMC3R % MAX. ACTIVITY (hMC3R; cAMP, heterologous cells): 85%
concentration giving maximal levels of cAMP (MC1R [1]; [5]): 10 nM
HMC4R % MAX. ACTIVITY (hMC4R; cAMP, heterologous cells): 102%
HMC5R % MAX. ACTIVITY (hMC5R; cAMP, heterologous cells): 39%
HMC1R % MAX. ACTIVITY (MC1R [3]): 128%
Compound: N=C(N)NCCC[C@H](NC(=O)[C@@H](Cc1ccccc1)NC(=O)[C@H](Cc1c[nH]cn1)NC(=O)CCCc1ccccc1)C(=O)N[C@@H](Cc1c[nH]c2ccccc12)C(N)=O [LK-184, Ph(CH2)3CO-His-(D-Phe)-Arg-Trp-NH2]
CPD removal compared with 10 nM α-MSH [2]: same effect at 1 nM on CPD removal as 10 nM a-MSH; also recorded: same effect at 1 nM on CPD removal as 10 nM α-MSH
effect on tyrosinase activity, comparison (tyrosinase; [6]): comparable effects in tyrosinase activity

HMC3R % MAX. ACTIVITY (hMC3R; cAMP, heterologous cells): 7%
cAMP compared to 10 nM αMSH (MC1R [1]): >
potency in stimulating cAMP formation, comparison (MC1R [1]; [5]): more potent than LK-184
potency at hMC4R compared with LK-184 (hMC4R): about ten times less potent
HMC4R % MAX. ACTIVITY (hMC4R; cAMP, heterologous cells): 39%
HMC5R % MAX. ACTIVITY (hMC5R; cAMP, heterologous cells): 34%
potency relative to a-MSH in activating MC1R and stimulating melanogenesis (tyrosinase; [6]): at least 100 times
HMC1R % MAX. ACTIVITY (MC1R [3]): 111%
Compound: N=C(N)NCCC[C@H](NC(=O)[C@@H](Cc1cccc2ccccc12)NC(=O)[C@H](Cc1c[nH]cn1)NC(=O)CCCc1ccccc1)C(=O)N[C@@H](Cc1c[nH]c2ccccc12)C(N)=O [LK-467, Ph(CH2)3CO-His-(D-1-Nal)-Arg-Trp-NH2]
reduction of CPD levels, comparison with LK-184 ([2]; 48 hours after UV exposure): as effective as LK-184
CPD removal compared with 10 nM α-MSH [2]: same effect at 1 nM on CPD removal as 10 nM a-MSH; also recorded: same effect at 1 nM on CPD removal as 10 nM α-MSH
reduction of 8-oxodG levels, comparison with LK-184 ([4]; 24 hours after UV exposure): as effective as LK-184
effect on tyrosinase activity, comparison (tyrosinase; [6]): comparable effects in tyrosinase activity

binding of MC3R (hMC3R): do not bind
HMC3R EC50 (hMC3R; cAMP, heterologous cells): INACTIVE
cAMP compared to 10 nM αMSH (MC1R [1]): <
binding of MC4R (hMC4R): do not bind
HMC4R EC50 (hMC4R; cAMP, heterologous cells): INACTIVE
binding of MC5R (hMC5R): do not bind
HMC5R EC50 (hMC5R; cAMP, heterologous cells): INACTIVE
concentration at which significant stimulation of tyrosinase activity begins (tyrosinase; [6]): 1 nM
TA compared to 10 nM αMSH (tyrosinase): <
potency in activation of MC1R compared with MT-II (MC1R [3]): about as potent as MT-II
HMC1R % MAX. ACTIVITY (MC1R [3]): 88%
Compound: N=C(N)NCCC[C@H](NC(=O)[C@@H](Cc1ccc(-c2ccccc2)cc1)NC(=O)[C@H](Cc1c[nH]cn1)NC(=O)CCCc1ccccc1)C(N)=O [LK-511, Ph(CH2)3CO-His-(D-4-Bip)-Arg-NH2]
potency in stimulating cAMP formation, comparison (MC1R [1]; [5]): about ten times less potent than a-MSH; also recorded: about ten times less potent than α-MSH

binding of MC3R (hMC3R): do not bind
cAMP compared to 10 nM αMSH (MC1R [1]): <
binding of MC4R (hMC4R): do not bind
binding of MC5R (hMC5R): do not bind
concentration at which significant stimulation of tyrosinase activity begins (tyrosinase; [6]): 1 nM
effect on tyrosinase activity, comparison (tyrosinase; [6]): the most effective
TA compared to 10 nM αMSH (tyrosinase): <
potency in activation of MC1R compared with MT-II (MC1R [3]): about as potent as MT-II
HMC1R % MAX. ACTIVITY (MC1R [3]): 94%
Compound: CC(C)(C)c1ccc(C[C@@H](NC(=O)[C@H](Cc2c[nH]cn2)NC(=O)CCCc2ccccc2)C(=O)N[C@@H](CCCNC(=N)N)C(N)=O)cc1 [LK-514, Ph(CH2)3CO-His-(D-4-tBuPhe)-Arg-NH2]
potency in stimulating cAMP formation, comparison (MC1R [1]; [5]): about ten times less potent than a-MSH; also recorded: more potent than LK-511 or 513; also recorded: about ten times less potent than α-MSH; also recorded: more potent than LK-511 or LK-513
reduction of 8-oxodG levels compared with 1 nM α-MSH ([4]; peptide at 100 nM, 24 hours post UV): greater effect than 1 nM α-MSH

TA compared to 10 nM αMSH (tyrosinase): NR (NR = No Response/inactive at 10 nM)
Compound: Ph(CH2)3CO-His-(D-1-Nal)-Arg-NH2 [510P]

TA compared to 10 nM αMSH (tyrosinase): NR (NR = No Response/inactive at 10 nM)
Compound: Ph(CH2)3CO-His-(D-1-Nal)-Arg-NHMe [512P]

TA compared to 10 nM αMSH (tyrosinase): <<
Compound: Ph(CH2)3CO-His-(D-2-Nal)-Arg-NH2 [515P]

cAMP compared to 10 nM αMSH (MC1R [1]): NR (NR = No Response/inactive at 10 nM)
Compound: Ph(CH2)3CO-His-(D-2-Nal)-Arg-NHEt [492P]

TA compared to 10 nM αMSH (tyrosinase): <<<
Compound: Ph(CH2)3CO-His-(D-2-Nal)-Arg-NHMe [517P]

cAMP compared to 10 nM αMSH (MC1R [1]): <<
Compound: Ph(CH2)3CO-His-(D-4-Bip)-Arg-NHEt [493P]

cAMP compared to 10 nM αMSH (MC1R [1]): <<
Compound: Ph(CH2)3CO-His-(D-4-tBuPhe)-Arg-NHEt [494P]

TA compared to 10 nM αMSH (tyrosinase): <<
Compound: Ph(CH2)3CO-His-(D-4-tBuPhe)-Arg-NHMe [516P]

cAMP compared to 10 nM αMSH (MC1R [1]): >*
potency in stimulating cAMP formation, comparison (MC1R [1]; [5]): equipotent to LK-467
effect on tyrosinase activity, comparison (tyrosinase; [6]): equipotent to LK-467
Compound: Ph(CH2)3CO-His-(D-Phe)-Arg-Trp-NHEt [LK-487]
